A short description of data set [1]: Lipophilicity, logD of compound in octanol-water at pH 7.4 by reverse phase HPLC analysis. In kind it is physicochemical.
Data set [2] is described as follows: Lipophilicity, logD of compound in octanol-water at pH 7.4 by shake-flask method. The data set is classed as physicochemical.
Data set [3] is described as follows: Oral bioavailability in C57 BL/6 or CD-1 mouse at 1 mg/kg measured upto 24 hrs by LC-MS/MS analysis. In kind it is ADME, organism-based. The conditions noted are these: in vivo.

Data on 17 compounds can be found in ChEMBL document CHEMBL6127126, “Closing the Design-Make-Test-Analyze Loop: Interplay between Experiments and Predictions Drives PROTACs Bioavailability” (J Med Chem, 2024).

A word on the logD: it is lipophilicity at a set pH, counting ionised and neutral species. For the compound `CC(C)(C)NC(=O)[C@@H]1C[C@@H]2CCCC[C@@H]2CN1C[C@@H](O)[C@H](Cc1ccccc1)NC(=O)[C@H](CC(N)=O)NC(=O)c1ccc2ccccc2n1`, the logD in data set [1] (read-out: logD) came out at 4.5.

For orientation: bioavailability means the share of a dose that reaches the circulation, judged against a reference dose that is usually intravenous. A low value points to poor availability. On to `Cc1ncsc1-c1ccc(CNC(=O)[C@@H]2C[C@@H](O)CN2C(=O)[C@@H](NC(=O)COCCOCCOCCNC(=O)C[C@@H]2N=C(c3ccc(Cl)cc3)c3c(sc(C)c3C)-n3c(C)nnc32)C(C)(C)C)cc1`, for which the logD in data set [2] is 3.8; in data set [1] (read-out: logD), 3.4. The same compound yielded a bioavailability in data set [3] of 0.16%.

As for `Cc1ncsc1-c1ccc(CNC(=O)[C@@H]2C[C@@H](O)CN2C(=O)[C@@H](NC(=O)C2(F)CC2)C(C)(C)C)c(OCCOc2ccc(CN3CCN(c4cc(-c5ccccc5O)nnc4N)CC3)cc2)c1`, the values for the logD in data set [2] (read-out: logD) and in data set [1] (read-out: logD) were 3.1 and 4.2, respectively. In data set [3], this compound showed a bioavailability of 2.7%.

On to `CC1(C)[C@H](NC(=O)c2ccc(N3CCN(CC4CCN(c5ccc6c(c5)C(=O)N(C5CCC(=O)NC5=O)C6=O)CC4)CC3)cc2)C(C)(C)[C@H]1Oc1ccc(C#N)c(Cl)c1` (stereo not given in full), for which the pH-dependent lipophilicity (logD) was 4.6 in data set [2] (read-out: logD) and 6.2 in data set [1] (read-out: logD). The compound also returned a bioavailability in data set [3] of 61.4%.

`Cc1nc(CCC(=O)NCCCCC(=O)N[C@H](C(=O)N2C[C@H](O)C[C@H]2C(=O)NCc2ccc(-c3scnc3C)cc2)C(C)(C)C)ccc1-c1cnc(NCc2c(Cl)ccc3c2CCO3)n2cnnc12`: the values for the logD in data set [2] (read-out: logD) and in data set [1] (read-out: logD) were 3.8 and 2.5, respectively. In data set [3], this compound yielded a bioavailability of 0%.

For the compound `C=CCc1ccccc1OCC(O)CNC(C)C` (stereo not given) [ALPRENOLOL], the logD in data set [1] (read-out: logD) was 1.5.

In data set [1], `COC(=O)N[C@H](C(=O)N[C@@H](Cc1ccccc1)[C@@H](O)CN(Cc1ccc(-c2ccccn2)cc1)NC(=O)[C@@H](NC(=O)OC)C(C)(C)C)C(C)(C)C` [ATAZANAVIR] had a logD of 4.2.

Take `N#Cc1ccc(O[C@H]2CC[C@H](NC(=O)c3ccc(N4CCC(CN5CCN(c6cc7c(cc6F)C(=O)N(C6CCC(=O)NC6=O)C7=O)CC5)CC4)nn3)CC2)cc1Cl` (stereo not given in full) [BAVDEGALUTAMIDE]: the log distribution coefficient (logD) in data set [2] (read-out: logD) amounted to 4.8; in data set [1] (read-out: logD), 5. In data set [3], this compound displayed a bioavailability of 64.6%.

On to `CN(C)CCC=C1c2ccccc2C=Cc2ccccc21` [CYCLOBENZAPRINE], for which, in data set [1] (read-out: logD), the logD worked out at 3.1.

Regarding `Cc1ncsc1-c1ccc([C@H](C)NC(=O)[C@@H]2C[C@@H](O)CN2C(=O)[C@@H](NC(=O)CCCCCC(=O)N2CCN(CC[C@H](CSc3ccccc3)Nc3ccc(S(=O)(=O)NC(=O)c4ccc(N5CCN(CC6=C(c7ccc(Cl)cc7)CCC(C)(C)C6)CC5)cc4)cc3S(=O)(=O)C(F)(F)F)CC2)C(C)(C)C)cc1` [DT-2216], the logD in data set [2] (read-out: logD) was 3.9; in data set [1] (read-out: logD), 7.3. In data set [3], this compound displayed a bioavailability of 0.07%.

The compound `CCOC(=O)C1=C(C)NC(C)=C(C(=O)OC)C1c1cccc(Cl)c1Cl` (stereo not given) [FELODIPINE] came in with a logD in data set [1] of 5.2.

As for `Cn1c(=O)n(C2CCC(=O)NC2=O)c2cccc(C#CCOC3CCN(C[C@H]4CC[C@H](n5cc(NC(=O)c6cnn7ccc(N8C[C@H]9C[C@@H]8CO9)nc67)c(C(F)F)n5)CC4)CC3)c21` (stereo not given in full) [KT-474], the logD came to 3.5 in data set [2] (read-out: logD) and 2.4 in data set [1]. In data set [3], the bioavailability was found to be 23.7%.

Regarding `COc1cc(O[C@H]2C(C)(C)[C@H](NC(=O)c3ccc(N4CCC(CN5CCN(c6ccc(C(=O)N[C@H]7CCC(=O)NC7=O)c(F)c6)CC5)CC4)cc3)C2(C)C)ccc1C#N` [LUXDEGALUTAMIDE], the log distribution coefficient (logD) is 3.7 in data set [2] (read-out: logD) and 5 in data set [1] (read-out: logD). The same compound displayed a bioavailability in data set [3] of 57.6%.

Turning to `COC(=O)C1=C(C)NC(C)=C(C(=O)OCCN(C)Cc2ccccc2)C1c1cccc([N+](=O)[O-])c1` (stereo not given) [NICARDIPINE], the log distribution coefficient (logD) in data set [1] (read-out: logD) was determined as 5.

With `CC1(C)CCC(CN2CCN(c3ccc(C(=O)NS(=O)(=O)c4ccc(NCC5CCOCC5)c([N+](=O)[O-])c4)c(Oc4cnc5[nH]ccc5c4)c3)CC2)=C(c2ccc(Cl)cc2)C1` [VENETOCLAX], the log distribution coefficient (logD) in data set [1] (read-out: logD) is 7.9.

For the compound `O=C1CC[C@H](N2Cc3cc(N4CCN(CC5CCN(c6ccc([C@@H]7c8ccc(O)cc8CC[C@@H]7c7ccccc7)cc6)CC5)CC4)ccc3C2=O)C(=O)N1` [VEPDEGESTRANT], the logD in data set [2] (read-out: logD) turned out to be 4.6; in data set [1], 5.7. The compound further displayed a bioavailability in data set [3] of 58.5%.

`CC(=O)CC(c1ccccc1)c1c(O)c2ccccc2oc1=O` (stereo not given) [WARFARIN]: the logD in data set [1] (read-out: logD) was 0.78.
